The values below come from paper PMC8468024, “PTP1B Inhibitory Secondary Metabolites from an Antarctic Fungal Strain Acremonium sp. SF-7394” (Molecules, 2021).

The test deals with T1, protein tyrosine phosphatase 1B (PTP1B) (Homo sapiens, UniProt P18031).
T1 construct: gene PTPN1
T1 sequence (P18031 1-435): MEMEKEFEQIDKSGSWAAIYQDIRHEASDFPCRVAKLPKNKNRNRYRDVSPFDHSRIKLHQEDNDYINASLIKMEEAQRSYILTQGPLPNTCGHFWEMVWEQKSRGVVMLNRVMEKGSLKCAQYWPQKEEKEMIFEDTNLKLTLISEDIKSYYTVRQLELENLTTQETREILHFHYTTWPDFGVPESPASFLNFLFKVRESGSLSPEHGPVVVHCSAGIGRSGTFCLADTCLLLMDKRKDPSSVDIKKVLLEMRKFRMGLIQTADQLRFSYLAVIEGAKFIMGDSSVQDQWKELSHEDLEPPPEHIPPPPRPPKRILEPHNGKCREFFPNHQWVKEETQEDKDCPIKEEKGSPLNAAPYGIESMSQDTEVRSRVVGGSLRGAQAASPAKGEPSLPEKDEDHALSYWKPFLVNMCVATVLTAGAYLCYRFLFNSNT
In words: p-NPP hydrolysis assay with recombinant enzyme; Lineweaver–Burk kinetics. Type of test: biochemical.

As for `CC(C)C[C@@H]1C[C@H](C)[C@@H]2CC[C@H](C)c3ccc(CO)c1c32` [compound 1, acrepseudoterin], the IC50 (as a rule, the concentration that gives 50% inhibition) was determined as 22.8 ± 1.1 µM.
